This note sets out measurements from ChEMBL document CHEMBL2203120, “Contribution to investigation of antimicrobial activity of styrylquinolines” (Bioorg Med Chem, 2012).

The test system of data set [1] is Staphylococcus aureus. Description: Antimicrobial activity against methicillin-resistant Staphylococcus aureus H 5996/08 after 24 hrs by broth microdilution method. Particulars: H 5996/08, 24 h. It is filed as functional. A general note: In broth dilution the organism is exposed to a series of concentrations in liquid medium.
The test system of data set [2] is Candida tropicalis. Description: Antimicrobial activity against Candida tropicalis 156 after 24 hrs by broth microdilution test. It counts as functional. The note with it: Candida tropicalis, 156, 24 h.
Data set [3] in a line: Lipophilicity, log P of compound by RP-HPLC analysis. It is filed as physicochemical.
For data set [4], the system named is Aspergillus fumigatus. Description: Antimicrobial activity against Aspergillus fumigatus 231 after 48 hrs by broth microdilution test. The note with it: Aspergillus fumigatus, 231, 48 h. It is filed as functional.
For data set [5], the system named is Lichtheimia corymbifera. Description: Antimicrobial activity against Absidia corymbifera 272 after 24 hrs by broth microdilution test. It counts as functional. The note with it: Lichtheimia corymbifera, 272, 24 h.
In data set [6] the test system is Staphylococcus epidermidis. Description: Antimicrobial activity against Staphylococcus epidermidis H 6966/08 after 48 hrs by broth microdilution method. It counts as functional. Particulars: H 6966/08, 48 h.
Data set [7] has as its system Trichophyton mentagrophytes. Description: Antimicrobial activity against Trichophyton mentagrophytes 445 after 120 hrs by broth microdilution test. It is filed as functional. The note with it: Trichophyton mentagrophytes, 445, 120 h.
In data set [8] the test system is Pichia kudriavzevii. Description: Antimicrobial activity against Candida krusei ATCC 6258 after 48 hrs by broth microdilution test. It is filed as functional. Particulars: ATCC 6258, 48 h.
Data set [9] has as its system Lichtheimia corymbifera. Description: Antimicrobial activity against Absidia corymbifera 272 after 48 hrs by broth microdilution test. It is filed as functional. Particulars: Lichtheimia corymbifera, 272, 48 h.
The subject of data set [10] is Trichosporon beigelii. Description: Antimicrobial activity against Trichosporon beigelii 1188 after 24 hrs by broth microdilution test. It is filed as functional. The note with it: Trichosporon beigelii, 1188, 24 h.
For data set [11], the system named is Nakaseomyces glabratus. Description: Antimicrobial activity against Candida glabrata 20/I after 48 hrs by broth microdilution test. It is filed as functional.
The subject of data set [12] is Trichosporon beigelii. Description: Antimicrobial activity against Trichosporon beigelii 1188 after 48 hrs by broth microdilution test. The note with it: Trichosporon beigelii, 1188, 48 h. It is filed as functional.
Data set [13] has as its system Staphylococcus aureus. Description: Antimicrobial activity against Staphylococcus aureus CCM 4516/08 after 48 hrs by broth microdilution method. It counts as functional. The note with it: CCM 4516/08, 48 h.
The test system of data set [14] is Candida albicans. Description: Antimicrobial activity against Candida albicans ATCC 44859 after 48 hrs by broth microdilution test. It is filed as functional. Particulars: ATCC 44859, 48 h.
Data set [15] deals with Nakaseomyces glabratus. Description: Antimicrobial activity against Candida glabrata 20/I after 24 hrs by broth microdilution test. It is filed as functional.
Data set [16] relates to Candida albicans. Description: Antimicrobial activity against Candida albicans ATCC 44859 after 24 hrs by broth microdilution test. It is filed as functional. The note with it: ATCC 44859, 24 h.
Data set [17] concerns Staphylococcus epidermidis. Description: Antimicrobial activity against Staphylococcus epidermidis H 6966/08 after 24 hrs by broth microdilution method. It counts as functional. The note with it: H 6966/08, 24 h.
Data set [18] relates to Candida tropicalis. Description: Antimicrobial activity against Candida tropicalis 156 after 48 hrs by broth microdilution test. It is filed as functional. Particulars: Candida tropicalis, 156, 48 h.
For data set [19], the system named is Aspergillus fumigatus. Description: Antimicrobial activity against Aspergillus fumigatus 231 after 24 hrs by broth microdilution test. It counts as functional. The note with it: Aspergillus fumigatus, 231, 24 h.
In data set [20] the test system is Trichophyton mentagrophytes. Description: Antimicrobial activity against Trichophyton mentagrophytes 445 after 72 hrs by broth microdilution test. It counts as functional. The note with it: Trichophyton mentagrophytes, 445, 72 h.
The test system of data set [21] is Staphylococcus aureus. Description: Antimicrobial activity against Staphylococcus aureus CCM 4516/08 after 24 hrs by broth microdilution method. The note with it: CCM 4516/08, 24 h. It counts as functional.
Data set [22] concerns Pichia kudriavzevii. Description: Antimicrobial activity against Candida krusei ATCC 6258 after 24 hrs by broth microdilution test. It is filed as functional. The note with it: ATCC 6258, 24 h.
Data set [23] concerns Staphylococcus aureus. Description: Antimicrobial activity against methicillin-resistant Staphylococcus aureus H 5996/08 after 48 hrs by broth microdilution method. It counts as functional. The note with it: H 5996/08, 48 h.

Each structure is given as a SMILES string. Converted amounts (≈) assume the structure as drawn.

For orientation: MIC90 means an inhibitory concentration at the 90% level, which refers to growth in some studies and to a panel of isolates in others. Read a high MIC90 as weaker potency. What is called MIC80 is an inhibitory concentration at the 80% level, which refers to growth in some studies and to a panel of isolates in others. In general, logP refers to the decadic logarithm of the partition coefficient of the neutral form, usually between octanol and water. A higher logP goes with higher lipophilicity. In general, MIC50 refers to the lowest concentration that inhibits either 50% of growth or 50% of the strains tested, depending on the study. Low values mean greater potency, high ones weaker potency. With `Oc1ccccc1/C=C/c1ccc2cccc(O)c2n1`, the MIC90 in data set [1] turned out to be 62.5 µM (≈ 16.5 µg/mL); in data set [6], 125 µM (≈ 32.9 µg/mL); in data set [13], 62.5 µM (≈ 16.5 µg/mL); in data set [17], 62.5 µM (≈ 16.5 µg/mL); in data set [21], 62.5 µM (≈ 16.5 µg/mL); in data set [23] it was 125 µM (≈ 32.9 µg/mL). Also, the MIC80 came to 125 µM (≈ 32.9 µg/mL) in data set [2]; 62.5 µM (≈ 16.5 µg/mL) in [8]; 31.2 µM (≈ 8.23 µg/mL) in data set [10]; 31.2 µM (≈ 8.23 µg/mL) in [11]; 62.5 µM (≈ 16.5 µg/mL) in data set [12]; 62.5 µM (≈ 16.5 µg/mL) in data set [14]. Further, the MIC80 in data set [15] worked out at 31.2 µM (≈ 8.23 µg/mL); in data set [16] it was 31.2 µM (≈ 8.23 µg/mL); in [18], 500 µM (≈ 132 µg/mL); in [22], 31.2 µM (≈ 8.23 µg/mL). Besides, in data set [3], the logP was found to be 3.95. Further, the MIC50 in [4] was above 500 µM; in data set [5] it was 62.5 µM (≈ 16.5 µg/mL); in data set [7], 62.5 µM (≈ 16.5 µg/mL); in data set [9] it was above 500 µM; in data set [19] it was 500 µM (≈ 132 µg/mL); in [20], 31.2 µM (≈ 8.23 µg/mL).

Consider `Oc1ccc(/C=C/c2ccc3cccc(O)c3n2)c(O)c1`, for which the MIC90 in data set [1] was 31.2 µM (≈ 8.73 µg/mL); in [6], 250 µM (≈ 69.8 µg/mL); in [13], 31.2 µM (≈ 8.73 µg/mL); in [17] it was 125 µM (≈ 34.9 µg/mL); in data set [21], 15.6 µM (≈ 4.36 µg/mL); in [23] it was 62.5 µM (≈ 17.5 µg/mL). The MIC80 is above 125 µM in [2]; 125 µM (≈ 34.9 µg/mL) in data set [8]; 62.5 µM (≈ 17.5 µg/mL) in data set [10]; 125 µM (≈ 34.9 µg/mL) in data set [11]; 125 µM (≈ 34.9 µg/mL) in data set [12]; above 125 µM in data set [14]. The MIC80 in [15] is 62.5 µM (≈ 17.5 µg/mL); in data set [16], 125 µM (≈ 34.9 µg/mL); in data set [18] it was above 125 µM; in [22], 62.5 µM (≈ 17.5 µg/mL). Further, the logP in data set [3] was 3.56. The MIC50 is 125 µM (≈ 34.9 µg/mL) in data set [4]; above 125 µM in [5]; 62.5 µM (≈ 17.5 µg/mL) in data set [7]; above 125 µM in [9]; 125 µM (≈ 34.9 µg/mL) in [19]; 31.2 µM (≈ 8.73 µg/mL) in [20].

In the case of `CCOc1ccccc1/C=C/c1ccc2c(Cl)cc(Cl)c(O)c2n1`, the MIC90 in data set [1] amounted to 3.9 µM (≈ 1.4 µg/mL); in data set [6], 7.81 µM (≈ 2.81 µg/mL); in data set [13], 7.81 µM (≈ 2.81 µg/mL); in [17], 3.9 µM (≈ 1.4 µg/mL); in [21] it was 3.9 µM (≈ 1.4 µg/mL); in [23], 7.81 µM (≈ 2.81 µg/mL). Also, the MIC80 in data set [2] amounted to 0.98 µM (≈ 0.353 µg/mL); in data set [8], 3.9 µM (≈ 1.4 µg/mL); in data set [10], 0.49 µM (≈ 0.177 µg/mL); in data set [11], 1.95 µM (≈ 0.702 µg/mL); in data set [12], 1.95 µM (≈ 0.702 µg/mL); in data set [14], 0.98 µM (≈ 0.353 µg/mL). For the same molecule, the MIC80 in data set [15] turned out to be 0.98 µM (≈ 0.353 µg/mL); in data set [16] it was 0.49 µM (≈ 0.177 µg/mL); in [18] it was 0.98 µM (≈ 0.353 µg/mL); in [22], 0.98 µM (≈ 0.353 µg/mL). In addition, the logP in data set [3] worked out at 5.67. For the same molecule, the MIC50 turned out to be 3.9 µM (≈ 1.4 µg/mL) in data set [4]; 15.6 µM (≈ 5.63 µg/mL) in [5]; 1.52 µM (≈ 0.548 µg/mL) in data set [7]; 15.6 µM (≈ 5.63 µg/mL) in data set [9]; 3.9 µM (≈ 1.4 µg/mL) in data set [19]; 1.39 µM (≈ 0.501 µg/mL) in data set [20].

`CCOc1ccc(/C=C/c2ccc3c(Cl)cc(Cl)c(O)c3n2)cc1`: the MIC90 in data set [1], in data set [6], in data set [13], in data set [17], in [21] and in [23] was 125 µM (≈ 45 µg/mL) throughout. Moreover, the MIC80 in [2] was 125 µM (≈ 45 µg/mL); in data set [8], 125 µM (≈ 45 µg/mL); in data set [10] it was 125 µM (≈ 45 µg/mL); in data set [11] it was above 125 µM; in data set [12], 125 µM (≈ 45 µg/mL); in data set [14] it was 125 µM (≈ 45 µg/mL). For the same molecule, the MIC80 was above 125 µM in data set [15], 125 µM (≈ 45 µg/mL) in [16], 125 µM (≈ 45 µg/mL) in data set [18] and 125 µM (≈ 45 µg/mL) in data set [22]. In data set [3], the lipophilicity (logP) came out at 5.67. Further, the MIC50 in [4] was above 125 µM; in data set [5] it was above 125 µM; in data set [7], 125 µM (≈ 45 µg/mL); in [9], above 125 µM; in data set [19], above 125 µM; in data set [20], 125 µM (≈ 45 µg/mL).

Consider `Oc1cccc(/C=C/c2ccc3cccc(O)c3n2)c1`, for which the MIC90 amounted to 125 µM (≈ 32.9 µg/mL) in data set [1]; 500 µM (≈ 132 µg/mL) in [6]; 125 µM (≈ 32.9 µg/mL) in data set [13]; 250 µM (≈ 65.8 µg/mL) in data set [17]; 125 µM (≈ 32.9 µg/mL) in data set [21]; 125 µM (≈ 32.9 µg/mL) in [23]. In addition, the MIC80 in [2], in [8], in [10], in data set [11], in data set [12] and in [14] was above 125 µM each time. The MIC80 in [15], in data set [16], in data set [18] and in [22] was above 125 µM each time. The same molecule came in with a logP in [3] of 3.95. The MIC50 in data set [4], in data set [5], in data set [7], in [9], in data set [19] and in data set [20] was above 125 µM each time.

With `OC(Cn1cncn1)(Cn1cncn1)c1ccc(F)cc1F` [FLUCONAZOLE], the MIC80 in data set [2] is 0.12 µM (≈ 0.0368 µg/mL); in data set [10], 0.24 µM (≈ 0.0735 µg/mL); in data set [12], 0.48 µM (≈ 0.147 µg/mL); in data set [14], 0.12 µM (≈ 0.0368 µg/mL); in data set [15], 0.98 µM (≈ 0.3 µg/mL); in data set [16], 0.06 µM (≈ 0.0184 µg/mL). In addition, in data set [18], the MIC80 is above 125 µM. For the same molecule, the MIC50 in data set [4], in data set [5], in [9] and in data set [19] was above 125 µM each time.
